Results reported in patent US7888328B2, “Oral formulations of cladribine” (Ares Trading S.A., priority 2003, dated 2011).
Converted amounts (≈) assume the structure as drawn.

Key:
[1] = Phase solubility study of cladribine in HPβCD solutions; type: physicochemical; conditions: aqueous hydroxypropyl-β-cyclodextrin (HPβCD) solution, aqueous with cosolvent or surfactant or cyclodextrin, thermodynamic from solid; with about 0.14 mole of HPβCD; complexation conditions of EXAMPLE 2; read-out: cladribine maintained dissolved (phase solubility)
Description: Generally, the complexation is conducted with heating, for example at about 45 to about 60° C. for a significant period of time, e.g., at least 6-9 hours; it is believed that even better results can be obtained by heating at up to about 80° C. for up to 24 hours. Excess precipitated cladribine is then removed and the cladribine concentration is subsequently measured. This concentration represents the amount of cladribine solubilized for a given amorphous cyclodextrin concentration. […] Consequently, the data points correspond to the amount of cladribine dissolved in aqueous HPβCD or other amorphous cyclodextrin under the selected conditions; when later lyophilized, the solution yields a complex cladribine-cyclodextrin complex which is an intimate amorphous admixture of (a) an amorphous inclusion complex of cladribine with an amorphous cyclodextrin and (b) amorphous free cladribine associated with amorphous cyclodextrin as a non-inclusion complex. If equilibrium conditions are reached during the complexation, the amorphous cladribine-cyclodextrin complex will be saturated with cladribine.
A phase solubility study can be carried out as follows. […] The excess, undissolved cladribine is removed by filtration. […] This process is repeated with different known concentrations of HPβCD until several data points are obtained. […]

[2] = Clinical study, relative bioavailability: plasma cladribine after oral formulations vs subcutaneous administration; type: in vivo, human (patients with MS); conditions: human, sc, 3.0 mg subcutaneous, single dose, n = 12
Description: This study was a 2 center, open-label, randomized, 4-way crossover single dose study using twelve patients with MS. Patients received randomly three different fixed oral doses (3.0 mg) and a fixed subcutaneous dose of 3.0 mg. The four treatment days were separated by a drug-free interval of at least 5 days. In each treatment period, blood samples were collected over a 24-hour period for evaluation of plasma cladribine.
The plasma concentration of cladribine was measured by a HPLC/MS/MS method. […] The limit of quantification was 100 pg/ml. Analysis of samples was carried out in 16 runs.
576 clinical plasma samples were analyzed and concentration values of cladribine were determined.

[3] = Clinical study, dose response and absolute bioavailability: plasma cladribine after oral doses vs intravenous infusion; type: in vivo, human (patients with MS); conditions: n = 26; for AUC(0-inf) / AUC(0-t) / Cmax / Tmax / half-life: human, plasma; for AUC(0-inf) / AUC(0-t) / Cmax: Geom Mean; for Tmax / half-life: Mean ± SD
Description: The objective of this study was to assess the systemic availability of cladribine after oral administration in two different fixed oral doses, in comparison with one fixed intravenous administration (reference formulation) in patients with MS (multiple sclerosis), and to evaluate the safety and tolerability of cladribine in this population.
This study was a 3 center, open-label, randomized, 3-way crossover single dose study using twenty-six patients with MS. […] The three treatment days were separated by a drug-free interval of at least 5 days. In each treatment period blood samples were collected over a 24-hour period for evaluation of plasma cladribine.
The plasma concentrations of cladribine were measured by a HPLC/MS/MS method. […] The limit of quantification was 100 pg/ml. Analysis of samples was carried out in 16 runs. Except the first run (which had to be rejected because of equipment failure), all other runs could be accepted. No calibrator had to be excluded from fitting of the calibration curve and accuracy of each quality control sample met the GLP requirements.
858 clinical plasma samples were analyzed and concentration values of cladribine were determined. The results were compiled and are summarized in the tables below [TABLES VII through X]. In these tables, the following definitions are applicable: Tmax is the time to reach maximum concentration in the plasma; T1/2 is the half-life of cladribine in the plasma; Cmax is the maximum concentration of cladribine in the plasma; AUCinf is the area under the curve for the measured data from zero extrapolated to infinity; AUCt is the area under the curve for the measured data (from zero to the last time point); Geom Mean is the geometric mean; CV is the coefficient of variation (relative standard deviation); LL is the lower limit; UL is the upper limit; σ^2 is the mean variance; σB^2 is the mean variance between subjects; σW^2 is the mean variance within subjects; CVT is the total coefficient of variation; and CVW is the coefficient of variation within subjects.

[4] = Oral Administration 10.0 mg vs 3.0 mg IV, dose normalized
[5] = Oral Administration 30.0 mg vs 3.0 mg IV, dose normalized
[6] = Oral Administration 3.0 mg (Batch N0120 3.0 mg tablets)
[7] = Oral Administration 10.0 mg (Batch N0126 10.0 mg tablets)

**Q.** What does the source list for `Nc1nc(Cl)nc2c1ncn2[C@H]1C[C@H](O)[C@@H](CO)O1` [Cladribine, 2-chloro-2′-deoxyadenosine]?
**A.** solubility [1]: ~49 mM (≈ 14 mg/mL); AUC(0-inf) ([2]; Geom Mean): 57.3 ng·h/mL; AUC(0-t) ([2]; Geom Mean): 54.7 ng·h/mL; Cmax ([2]; Geom Mean): 23.2 ng/mL; Tmax ([2]; Mean ± SD): 0.313 ± 0.113 h; half-life ([2]; Mean ± SD): 6.69 ± 2.01 h; Ratio of Oral to I.V. AUCinf [3, 4]: 39.1; Ratio of Oral to I.V. AUCt [3, 4]: 39.4; Ratio of Oral to I.V. AUCinf [3, 5]: 34.5; Ratio of Oral to I.V. AUCt [3, 5]: 34.0; CVT (total coefficient of variation) of AUCinf ([3]; dose-adjusted PK parameter): 29.2%; CVT (total coefficient of variation) of AUCt ([3]; dose-adjusted PK parameter): 29.8%; CVT (total coefficient of variation) of Cmax ([3]; dose-adjusted PK parameter): 43.0%; CVW (coefficient of variation within subjects) of AUCinf ([3]; dose-adjusted PK parameter): 18.3%; CVW (coefficient of variation within subjects) of AUCt ([3]; dose-adjusted PK parameter): 19.1%; CVW (coefficient of variation within subjects) of Cmax ([3]; dose-adjusted PK parameter): 37.5%; AUC(0-inf) ([3]; 3.0 mg IV infusion (1 hour)): 58.5 ng·h/mL; AUC(0-t) ([3]; 3.0 mg IV infusion (1 hour)): 56.4 ng·h/mL; Cmax ([3]; 3.0 mg IV infusion (1 hour)): 21.4 ng/mL; Tmax ([3]; 3.0 mg IV infusion (1 hour)): 0.817 ± 0.397 h; half-life ([3]; 3.0 mg IV infusion (1 hour)): 6.5 ± 1.27 h; AUC(0-inf) [3, 6]: 20.2 ng·h/mL; AUC(0-t) [3, 6]: 19.2 ng·h/mL; Cmax [3, 6]: 5.61 ng/mL; Tmax [3, 6]: 0.548 ± 0.3 h; half-life [3, 6]: 5.85 ± 1.18 h; AUC(0-inf) [3, 7]: 76.7 ng·h/mL; AUC(0-t) [3, 7]: 74.5 ng·h/mL; Cmax [3, 7]: 21.2 ng/mL; Tmax [3, 7]: 0.558 ± 0.204 h; half-life [3, 7]: 5.6 ± 0.75 h; Ratio 10.0 mg/3.0 mg AUCinf ([3]; oral doses, dose normalized): 113.3; Ratio 10.0 mg/3.0 mg AUCt ([3]; oral doses, dose normalized): 115.8; Ratio 10.0 mg/3.0 mg Cmax ([3]; oral doses, dose normalized): 112.6
